Experimental data as given in the supplement of paper PMC5908809.

What was measured:
Experiment in all cases: relative IC50 (inflection point of fitted viability curve, relative to fitted max inhibition); higher = less sensitive
Details in all cases: 72 h
[1] = system: normal primary NK cells, pool 1 (3 donors) (IL-2 2.5 ng/mL)
Procedure: (§1)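 Drug sensitivity and resistance testing: 5 concentrations over a 10,000-fold range, 72 h at 37 °C, viability by CellTiter-Glo normalised to DMSO and benzethonium chloride controls. IC50 is the inflection point of a logistic fit (min fixed at 0, max fitted), so it is relative to the fitted maximal inhibition. Kept only where fitted max inhibition is at least 50%.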

DERL-7 (IL-2 2.5 ng/mL) = system: DERL-7 (IL-2 2.5 ng/mL)
Procedure: as §1

NK-92 (IL-2 2.5 ng/mL) = system: NK-92 (IL-2 2.5 ng/mL)
Procedure: as §1

KAI3 (IL-2 2.5 ng/mL) = system: KAI3 (IL-2 2.5 ng/mL)
Procedure: as §1

YT (IL-2 2.5 ng/mL) = system: YT (IL-2 2.5 ng/mL)
Procedure: as §1

NK-YS (IL-2 2.5 ng/mL) = system: NK-YS (IL-2 2.5 ng/mL)
Procedure: as §1

[2] = system: normal primary NK cells, pool 1 (3 donors), resting (IL-2 0 ng/mL)
Procedure: as §1

[3] = system: normal primary NK cells, pool 3 (3 donors) (IL-2 2.5 ng/mL)
Procedure: as §1

IMC-1 (IL-2 20 ng/mL) = system: IMC-1 (IL-2 20 ng/mL)
Procedure: as §1

[4] = system: normal primary NK cells, pool 2 (3 donors) (IL-2 2.5 ng/mL)
Procedure: as §1

SNK-6 (IL-2 2.5 ng/mL) = system: SNK-6 (IL-2 2.5 ng/mL)
Procedure: as §1

NKL (IL-2 2.5 ng/mL) = system: NKL (IL-2 2.5 ng/mL)
Procedure: as §1

KHYG-1 (IL-2 2.5 ng/mL) = system: KHYG-1 (IL-2 2.5 ng/mL)
Procedure: as §1

Compound	relative IC50 [1]	relative IC50 (DERL-7 (IL-2 2.5 ng/mL))	relative IC50 (NK-92 (IL-2 2.5 ng/mL))	relative IC50 (KAI3 (IL-2 2.5 ng/mL))	relative IC50 (YT (IL-2 2.5 ng/mL))	relative IC50 (NK-YS (IL-2 2.5 ng/mL))	relative IC50 [2]	relative IC50 [3]	relative IC50 (IMC-1 (IL-2 20 ng/mL))	relative IC50 [4]	relative IC50 (SNK-6 (IL-2 2.5 ng/mL))	relative IC50 (NKL (IL-2 2.5 ng/mL))	relative IC50 (KHYG-1 (IL-2 2.5 ng/mL))
CC[C@@]1(O)C(=O)OCc2c1cc1n(c2=O)Cc2cc3c(CN(C)C)c(O)ccc3nc2-1 [Topotecan]	772 nM	54.9 nM	20.5 nM	42 nM	52.5 nM	39.6 nM	2880 nM	1030 nM	30.8 nM	1320 nM	40.2 nM	35 nM	33.8 nM
CCNC(=O)c1noc(-c2cc(C(C)C)c(O)cc2O)c1-c1ccc(CN2CCOCC2)cc1 [Luminespib]	3.66 nM	3.05 nM	7.37 nM	3.47 nM	26.2 nM	3.79 nM		4.81 nM	9.73 nM	3.27 nM	12.4 nM	3.28 nM	10.4 nM
C/C(=C\c1csc(C)n1)[C@@H]1C[C@@H]2O[C@]2(C)CCC[C@H](C)[C@H](O)[C@@H](C)C(=O)C(C)(C)[C@@H](O)CC(=O)N1 [Ixabepilone]	> 1000 nM	335 nM	398 nM	383 nM	308 nM	348 nM	> 1000 nM		360 nM		348 nM	357 nM	301 nM
C1=N/C2=N/c3ccc(OCCN4CCCC4)c(c3)COC/C=C/COCc3cccc(c3)C(=C1)N2 [Pacritinib]	410 nM	560 nM	1220 nM	569 nM	910 nM	982 nM	838 nM	627 nM	3880 nM	367 nM	1390 nM	777 nM	826 nM
CC(C)C(=O)Nc1ccc([N+](=O)[O-])c(C(F)(F)F)c1 [Flutamide]	> 10000 nM			> 10000 nM									> 10000 nM
CCOc1cc2ncc(C#N)c(Nc3ccc(F)c(Cl)c3)c2cc1NC(=O)/C=C/CN(C)C [Pelitinib]	300 nM	293 nM	510 nM	260 nM	496 nM	820 nM	459 nM	429 nM	966 nM	260 nM	103 nM	475 nM	382 nM
CNC(=O)c1cc(Oc2ccc(NC(=O)Nc3ccc(Cl)c(C(F)(F)F)c3)cc2)ccn1 [Sorafenib]	> 1000 nM							> 1000 nM	> 1000 nM	> 1000 nM		> 1000 nM	
Oc1c2ccccc2c2c3c(cccc13)N=N2	11000 nM	2570 nM	4980 nM	10600 nM		13200 nM					12200 nM	4960 nM	9700 nM
CNNCc1ccc(C(=O)NC(C)C)cc1 [Procarbazine]	> 10000 nM	> 10000 nM	> 10000 nM	> 10000 nM	> 10000 nM	> 10000 nM		> 10000 nM	> 10000 nM	> 10000 nM		> 10000 nM	> 10000 nM
O=[N+]([O-])c1ccc2c(c1)S(=O)(=O)C=C2 [Stattic]	1110 nM	1220 nM	1800 nM	1100 nM	1770 nM	6720 nM	1170 nM	1850 nM	18900 nM	1660 nM	2020 nM	4710 nM	1700 nM
CCC/C=C/C=C/C(=O)O[C@H]1/C(=C/C(=O)OC)C[C@H]2C[C@H]([C@@H](C)O)OC(=O)C[C@H](O)C[C@@H]3C[C@H](OC(C)=O)C(C)(C)[C@](O)(C[C@@H]4C/C(=C/C(=O)OC)C[C@H](/C=C/C(C)(C)[C@]1(O)O2)O4)O3 [Bryostatin 1]	> 100 nM		0.23 nM					> 100 nM	0.28 nM	> 100 nM	1 nM	> 100 nM	0.13 nM
CC(C)CC(=O)Nc1n[nH]c2c1CN(C(=O)C1CCN(C)CC1)C2(C)C	3000 nM	666 nM	871 nM	1390 nM	1220 nM	463 nM	4760 nM	2210 nM	182 nM	1890 nM	1650 nM	1510 nM	380 nM
Cc1ccc(NC(=O)c2ccc(CN3CCN(C)CC3)cc2)cc1Nc1nccc(-c2cccnc2)n1 [Imatinib]	1650 nM	2190 nM	2230 nM	3230 nM	2740 nM	2920 nM	1980 nM		3400 nM		4290 nM	3600 nM	3080 nM
O=C(NC1CCNCC1)c1n[nH]cc1NC(=O)c1c(Cl)cccc1Cl [AT7519]	265 nM	356 nM	1270 nM	355 nM	424 nM	236 nM	400 nM	381 nM	317 nM	319 nM	307 nM	204 nM	753 nM
S=C(NCc1ccc2c(c1)OCO2)N1CCN(c2ncnc3c2oc2ccccc23)CC1 [Amuvatinib]	1570 nM	521 nM	911 nM	1480 nM		2060 nM	1380 nM	1760 nM		1930 nM	388 nM	815 nM	1330 nM
CN[C@@H]1C[C@H]2O[C@@](C)([C@@H]1OC)n1c3ccccc3c3c4c(c5c6ccccc6n2c5c31)C(=O)N[C@H]4O [UCN-01]	97.1 nM	27 nM	39.3 nM	21.3 nM	184 nM	51.1 nM	204 nM	126 nM	375 nM	75.8 nM	15.3 nM	53.3 nM	24.9 nM
CC(C)(C)Cn1c(N)nc2ccc(-c3[nH]c(C(C)(C)C)nc3-c3ccc(F)cc3)nc21 [Ralimetinib]	3570 nM		1960 nM		2220 nM		4000 nM		> 10000 nM			1600 nM	
O=C(O)c1ccc2c(c1)nc(Nc1cccc(Cl)c1)c1ccncc12 [Silmitasertib]	1690 nM	2270 nM	3900 nM	1780 nM	1650 nM	2170 nM	3780 nM	2040 nM		2230 nM	3730 nM	1850 nM	2010 nM
O=NN(CCCl)C(=O)NC1CCCCC1 [Lomustine]	> 10000 nM	> 10000 nM	> 10000 nM					> 10000 nM	> 10000 nM	> 10000 nM		> 10000 nM	
CC(C)C[C@H](NC(=O)[C@H](CCc1ccccc1)NC(=O)CN1CCOCC1)C(=O)N[C@@H](Cc1ccccc1)C(=O)N[C@@H](CC(C)C)C(=O)[C@@]1(C)CO1 [Carfilzomib]	1.61 nM	0.92 nM	1.96 nM	1.43 nM	3.07 nM	2.91 nM	1.41 nM	2.58 nM	3.26 nM	1.77 nM	2.8 nM	3.52 nM	2.95 nM
CN(C)C[C@@H]1CCn2cc(c3ccccc32)C2=C(C(=O)NC2=O)c2cn(c3ccccc23)CCO1 [Ruboxistaurin]	1430 nM	1140 nM	2950 nM	1430 nM	2730 nM	1540 nM	1070 nM	2000 nM	4180 nM	2110 nM	2810 nM	1240 nM	1290 nM
COc1cc(Nc2c(C#N)cnc3cc(OCCCN4CCN(C)CC4)c(OC)cc23)c(Cl)cc1Cl [Bosutinib]	1710 nM	1320 nM	1620 nM	1350 nM	1950 nM	2980 nM	850 nM	3450 nM	3640 nM	1520 nM	3870 nM	3110 nM	1480 nM
COc1ccc(-c2ccc3ncc4c(c3c2)n(-c2ccc(N3CCNCC3)c(C(F)(F)F)c2)c(=O)n4C)cn1 [NVP-BGT226]	105 nM	8.54 nM	29.8 nM	45.8 nM	45.6 nM	25.3 nM	64.4 nM	167 nM	90.7 nM	128 nM	53.8 nM	47.8 nM	48.4 nM
